Experimental data published in article PMC9025269, “Synthesis and Anti-Hepatitis B Activities of 3′-Fluoro-2′-Substituted Apionucleosides” (Molecules, 2022).
Like-named read-outs stand apart in the source and are kept apart here.

How the values were obtained:
HBV [1] = conditions: racemic compounds; read-out: EC50 HBV in vitro; cited from earlier work
[2] = Cell cytotoxicity against HepG2 cells (CellTiter-Glo, 96 h); type: cell-based, human; conditions: human
Procedure: (§1) In parallel, cell cytotoxicity (CC50) against HepG2 cells was measured using a luminescent cell viability assay to determine the number of viable cells in the culture based on quantitation of the adenosine triphosphate (ATP) present after a 4-day incubation period. On the first day, HepG2 cells were seeded at 15,000 cells per 100 µL per well with assay media containing DEME (Corning, cat#10-013-CV), 3% FBS (Coning, cat#35-011-CV), 1× penicillin/streptomycin and 1× Non-essential Amino Acid in Biocoat collagen-coated 96-well flat bottom plates. Cells were incubated in a 37 °C, 5% CO2 incubator for 4 h before compound dosing. The compound dilution and dosing procedure were identical to that for the determination of anti-HBV activity. After 96 h incubation, CellTiter-Glo® reagent (Promega, Madison, WI, USA) was added to each well and incubated for 10 min at RT. Luminescence was measured on a Victor X3 multi-label plate reader. Cell viability is normalized to the level observed in the absence of an inhibitor, which was defined as 100%.

[3] = system: VSV-G pseudotyped HIV NL4-3; assay: microbe, parasite or virus in culture; type: cell-based; conditions: for EC50: Human immunodeficiency virus 1, NL43, CCRF-CEM, 72 h, read-out: HIV EC50
HBV [4] = assay: HBV replication assay with HepG2.117 cells (qPCR of HBV DNA in supernatant); type: cell-based, Hepatitis B virus; conditions: for EC50: Hepatitis B virus, HepG2.117 cells, 96 h, mean ± SD (n); for anti-HBV activity: cell-based assay
HepG2 cells = assay: Cell cytotoxicity against HepG2 cells (CellTiter-Glo, 96 h); type: cell-based, human; conditions: at highest tested concentrations; HepG2 and CEM cells (Table 1)
Procedure: as §1

in vitro = conditions: human
HBV polymerase = biological target: T1, HBV polymerase (Hepatitis B virus genotype D subtype ayw, UniProt P03156); assay: HBV polymerase RdDp activity assay; type: biochemical; conditions: read-out: HBV pol IC50
T1 construct: Recombinant HBV polymerase (Hepatitis B virus genotype D subtype ayw, full length); made in house; host or cells: Sf9 insect cells (baculovirus)
T1 sequence (P03156 whole entry): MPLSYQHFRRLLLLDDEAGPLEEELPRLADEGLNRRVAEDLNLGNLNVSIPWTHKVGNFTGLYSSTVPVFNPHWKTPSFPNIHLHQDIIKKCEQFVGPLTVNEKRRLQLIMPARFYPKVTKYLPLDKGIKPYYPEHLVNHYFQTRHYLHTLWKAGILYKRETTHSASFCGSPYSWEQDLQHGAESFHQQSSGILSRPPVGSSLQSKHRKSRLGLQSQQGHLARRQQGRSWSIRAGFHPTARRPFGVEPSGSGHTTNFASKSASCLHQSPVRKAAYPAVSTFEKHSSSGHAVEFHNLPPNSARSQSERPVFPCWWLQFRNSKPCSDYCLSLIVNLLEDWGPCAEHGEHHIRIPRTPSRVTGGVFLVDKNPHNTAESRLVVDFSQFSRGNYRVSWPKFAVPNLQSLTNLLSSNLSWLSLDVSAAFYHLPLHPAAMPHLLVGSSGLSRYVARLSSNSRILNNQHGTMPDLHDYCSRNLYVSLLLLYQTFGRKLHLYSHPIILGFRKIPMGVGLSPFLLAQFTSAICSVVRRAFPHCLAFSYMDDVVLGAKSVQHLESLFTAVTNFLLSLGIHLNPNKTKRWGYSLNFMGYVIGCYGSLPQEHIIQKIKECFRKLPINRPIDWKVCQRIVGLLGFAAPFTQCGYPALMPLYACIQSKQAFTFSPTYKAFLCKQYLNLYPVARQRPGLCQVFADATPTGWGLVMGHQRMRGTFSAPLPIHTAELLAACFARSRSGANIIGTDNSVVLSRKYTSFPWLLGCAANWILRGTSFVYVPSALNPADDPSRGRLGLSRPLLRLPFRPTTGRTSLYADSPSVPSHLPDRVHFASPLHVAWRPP
Description: (§2) HIV-1 reverse transcriptase (HIV-1 RT) was purchased from Abcam (cat#ab63979). Recombinant HBV polymerase (Hepatitis B virus genotype D subtype ayw, full length) was cloned using the baculovirus system, expressed in sf9 cells, and purified with similar strategy and methods described by Lanford et al.. A DNA primer (5′-[…]-3′) was synthesized by IDTDNA and a 358-nt RNA template was synthesized in-house using Megascript T7 transcription kit (ThermoFisher, cat#AM1334). dNTPs were purchased from Thermo Fisher and ^3H-dTTP from Perkin Elmer. Filter plates were purchased from Millipore (cat#MABN0V050) and microscint-20 was purchased from Perkin Elmer (cat#6013621).
The RdDp activity of HBV polymerase was measured similarly as described for the HIV-1 RT. To test compound inhibition effect, the reactions were performed at 30 °C for 120 min in a reaction mixture containing reaction buffer (50 mM Tris-Cl, pH 7.5, 100 mM KCl, 12.5 mM MgCl2, 4 mM DTT), 15 µg/mL polymerase, 0.5 µM DNA primer, 0.05 µM RNA template, 10% DMSO, 0.046 µM dATP, 0.057 µM dGTP, 0.017 µM dCTP, 0.32 µM ^3H-dTTP, and compounds at various concentrations.
All data were analyzed with GraphPad Prism. […]

[5] = biological target: T2, HIV-1 reverse transcriptase (HIV-1 RT) (Human immunodeficiency virus type 1 group M subtype B, UniProt P03366); assay: HIV-1 reverse transcriptase RdDp activity assay; type: biochemical
T2 construct: HIV-1 reverse transcriptase (HIV-1 RT) was purchased from Abcam (cat#ab63979); purchased Abcam ab63979
Description: as §2
The RNA-dependent DNA polymerization (RdDp) activity of HIV-1 RT was measured by the incorporation of radioactively labeled nucleotides by HIV-1 RT into acid-insoluble DNA products from the DNA primer primed RNA template. To test compound inhibition, the reactions were performed at 30 °C for 40 min in a reaction mixture containing reaction buffer (50 mM Tris-Cl, pH 7.5, 100 mM KCl, 12.5 mM MgCl2, 4 mM DTT), 1 nM HIV-1 RT, 0.1 µM DNA primer, 0.02 µM RNA template, 10% DMSO, 0.1 µM dATP, 1 µM dGTP, 0.1 µM dCTP, 0.32 µM ^3H-dTTP, and compounds at various concentrations. The 50 µL reactions were performed in 96-well plates. The reactions were quenched with a 60 µL cold mixture of 20% (w/v) TCA and 0.5 mM ATP and incubated at 4 °C for 1 h. The reactions were loaded onto 96-well filter plates. The filters on plates were washed three times with 10% TCA and once with 70% ethanol on a Millipore plate wash station with vacuum applied. The filters on the plate were air-dried and 40 μL Microscint-20 was added to each well. The acid-precipitated tritiated DNA products retained on the filters were detected by a Trilux MicroBeta scintillation reader (Perkin Elmer).
All data were analyzed with GraphPad Prism. The compound concentration at which the enzyme-catalyzed rate was reduced by 50% (IC50) was calculated by fitting the data to the equation Y = % Min + (% Max − % Min) / (1 + 10^((logIC50-X)*h)), where Y corresponds to the percent inhibition to the enzyme activity, % Min is the residual inhibition activity without compound, % Max is the maximum inhibition of enzyme activity at saturating compound concentration, and X corresponds to the log of compound concentrations, and h is the hillslope.

[6] = HepG2 cells, 96 h, read-out: HBV CC50

Row | SMILES | EC50 [3] [nM] | EC50 (HBV [4]) [nM] | cytotoxicity (HepG2 cells) | anti-HBV activity (HBV [4]) | CC50 (in vitro) [nM] | also measured
1 | Nc1ccn([C@H]2C[C@@](F)(CO)CO2)c(=O)n1 (relative stereo) [Compound 2c] |  |  |  |  |  | EC50 (HBV [1]): 11 nM
2 | C=C1[C@H](CO)[C@@H](O)C[C@@H]1n1cnc2c(=O)[nH]c(N)nc21 [Compound 1, entecavir, reference compound] | 1240 | 3 ± 2.4 |  |  |  | CC50 at 96 h [2]: > 100000 nM
3 | Nc1ncnc2c1ncn2[C@@H]1OC[C@](F)(CO)[C@H]1O [Compound 4, (2R,3S,4R)-2-(6-Amino-9H-purin-9-yl)-4-fluoro-4-(hydroxymethyl)tetrahydrofuran-3-ol] | > 33000 | > 100000 | None of the tested apionucleosides 4 and 5 or apionucleoside prodrugs 24 and 39 showed any cytotoxicity | Neither 4 nor its prodrug 24 showed any anti-HBV activity | > 33000 | CC50 at 96 h [2]: > 100000 nM
4 | C=C1[C@H](COP(=O)(N[C@@H](C)C(=O)OC(C)C)Oc2ccccc2)[C@@H](O)C[C@@H]1n1cnc2c(=O)[nH]c(N)nc21 (some centres unmarked) [Compound 1-PD, reference compound] | > 20000 | 31 ± 20 |  |  | > 20000 | CC50 at 96 h [2, 6]: > 10000 nM
5 | C=C1[C@H](COP(=O)(O)OP(=O)(O)OP(=O)(O)O)[C@@H](O)C[C@@H]1n1cnc2c(=O)[nH]c(N)nc21 [Compound 1-TP, reference compound] |  |  |  |  |  | IC50 (HBV polymerase): 14 ± 3 nM; IC50 [5]: 320 nM
6 | O=c1[nH]c(=O)n([C@H]2C[C@](F)(CO)CO2)cc1I (relative stereo) [Compound 3b] |  |  |  |  |  | EC50 (HBV [1]): 800 nM
7 | CC(C)OC(=O)[C@H](C)NP(=O)(OC[C@@]1(F)CO[C@@H](n2cnc3c(N)ncnc32)[C@@H]1O)Oc1ccccc1 (stereo partly drawn) [Compound 24, Isopropyl ((((3S,4S,5R)-5-(6-amino-9H-purin-9-yl)-3-fluoro-4-hydroxytetrahydrofuran-3-yl)methoxy)(phenoxy)phosphoryl)-L-alaninate] | > 33000 | > 10000 | None of the tested apionucleosides 4 and 5 or apionucleoside prodrugs 24 and 39 showed any cytotoxicity | Neither 4 nor its prodrug 24 showed any anti-HBV activity | > 33000 | CC50 at 96 h [2, 6]: > 10000 nM
8 | Nc1nc(=O)n([C@H]2C[C@@](F)(CO)CO2)cc1F (relative stereo) [Compound 2d] |  |  |  |  |  | EC50 (HBV [1]): 800 nM
9 | CC(C)OC(=O)[C@H](C)NP(=O)(OC[C@@]1(F)CO[C@@H](n2cnc3c(N)ncnc32)[C@@H]1CO)Oc1ccccc1 (stereo partly drawn) [Compound 39, Isopropyl ((((3S,4S,5R)-5-(6-amino-9H-purin-9-yl)-3-fluoro-4-(hydroxymethyl)tetrahydro-furan-3-yl)methoxy)(phenoxy)phosphoryl)-L-alaninate] | 300 | 7.8 ± 3.5 | None of the tested apionucleosides 4 and 5 or apionucleoside prodrugs 24 and 39 showed any cytotoxicity | strong inhibition of HBV | > 33000 | CC50 at 96 h [2, 6]: > 10000 nM; anti-HIV activity [3]: showed anti-HIV activity
10 | Nc1ncnc2c1ncn2[C@@H]1OC[C@](F)(CO)[C@H]1CO [Compound 5, ((2R,3S,4R)-2-(6-Amino-9H-purin-9-yl)-4-fluorotetrahydrofuran-3,4-diyl)dimethanol] | > 33000 | > 10000 | None of the tested apionucleosides 4 and 5 or apionucleoside prodrugs 24 and 39 showed any cytotoxicity | did not show any anti-HBV activity | > 33000 | CC50 at 96 h [2]: > 10000 nM
11 | Nc1ncnc2c1ncn2[C@@H]1OC[C@](F)(COP(=O)(O)OP(=O)(O)OP(=O)(O)O)[C@H]1O [Compound 23, ((3S,4S,5R)-5-(6-Amino-9H-purin-9-yl)-3-fluoro-4-hydroxytetrahydrofuran-3-yl)methyl triphosphate] |  |  |  |  |  | IC50 [5]: 4200 nM
